Data: paper PMC8708821, “Comprehensive Analysis and Biological Characterization of Venom Components from Solitary Scoliid Wasp Campsomeriella annulata annulata” (Toxins, 2021)
Where two headings read alike, the source gives them in different places. Marks after values point to notes of the source that are not given here. No end group written: not given here.

Key:
PC12 cells [1] = assay: Toxicity on cell integrity, crystal violet, PC12 cells; type: cell-based, rat
Protocol: (§1) The cytotoxic effects of α-campsomerin and β-campsomerin were determined by the staining of attached cells with crystal violet dye, according to the literature. In a 96-well plate (Nest Biotechnology, Rahway, USA), PC12 and Vero cells were put at 2.0 × 10^4 and 1.0 × 10^4 cells/well, respectively. Cells were treated with different concentrations (0.1 to 10 µmol·L^−1) of peptides in 0.10 mL. The plate was incubated for 1, 6, 24, and 48 h at 37 °C. There were control and DMSO groups for each concentration and time course tested, representing untreated cells (just one equal volume of culture medium) and cells treated with DMSO (5%; v/v) diluted in the medium culture, respectively. The media was then aspirated, and the cells were stained with a 0.5 percent crystal violet staining solution (0.5%; m/v), washed, and air-dried. Afterwards, methanol (200 μL) was added, and the absorbance measured at 570 nm using a SpectraMax reader (Molecular Devices, CA, USA). Data were obtained from three independent experiments in triplicate, and were expressed by percentage of cell viability, calculated using the control group as 100% of integrity.

Vero cells = assay: Toxicity on cell integrity, crystal violet, Vero cells; type: cell-based, Cercopithecus aethiops (African green monkey); details: for cytotoxicity in Vero cells: 0.1, 1 and 10 μmol·L−1, 1, 6, 24 and 48 h, vs untreated cells, n = 3 in triplicate
Protocol: as §1

PC12 cells [2] = assay: Neuroprotective assay against H2O2-induced oxidative stress; type: cell-based, rat
Protocol: Initially, PC12 cells were seeded at 2 × 10^4 cells/well in a 96-well plate (Nest Biotechnology, Rahway, NJ, USA) for 24 h. To evaluate the neuroprotective effects of peptides, cells were pre-treated at 37 °C with α-campsomerin and β-campsomerin (0.1 to 20 µmol·L^−1), diluted in DMEM medium supplemented with antibiotics without fetal bovine serum for 4 h. […] Cells untreated with H2O2 represent control group in all experiments. Next, all groups were analyzed by the cell integrity.

[3] = target: T1, AChE from Electrophorus electricus (electric eel) Type VI-S (Electrophorus electricus, UniProt O42275); assay: AChE activity, Ellman's technique; type: biochemical; details: positive control; mean ± SD, three independent experiments in triplicate
T1 construct: purchased Sigma-Aldrich Type VI-S
T1 sequence (O42275 24-633): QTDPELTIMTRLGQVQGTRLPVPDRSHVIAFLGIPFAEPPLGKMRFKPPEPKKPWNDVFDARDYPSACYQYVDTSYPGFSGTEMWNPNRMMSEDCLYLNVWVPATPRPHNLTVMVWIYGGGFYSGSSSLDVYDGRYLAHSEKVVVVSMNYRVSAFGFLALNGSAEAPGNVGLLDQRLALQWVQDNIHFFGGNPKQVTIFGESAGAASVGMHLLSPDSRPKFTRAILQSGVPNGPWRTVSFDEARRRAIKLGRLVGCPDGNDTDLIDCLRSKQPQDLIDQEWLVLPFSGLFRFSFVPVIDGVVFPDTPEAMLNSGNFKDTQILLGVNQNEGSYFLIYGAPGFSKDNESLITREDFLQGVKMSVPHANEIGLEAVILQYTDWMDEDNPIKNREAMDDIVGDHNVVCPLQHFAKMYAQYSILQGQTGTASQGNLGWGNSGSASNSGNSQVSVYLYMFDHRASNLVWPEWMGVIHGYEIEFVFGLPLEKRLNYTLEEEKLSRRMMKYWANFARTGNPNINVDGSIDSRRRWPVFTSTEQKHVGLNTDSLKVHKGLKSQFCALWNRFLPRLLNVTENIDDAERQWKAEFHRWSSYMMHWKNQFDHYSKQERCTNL
Protocol: The AChE activity was evaluated spectrophotometrically using Ellman’s technique, as previously reported by Harry et al., with slight modifications. Both peptides (20 μL) at varied concentrations (20, 10, 5, 1, and 0.1 µmol·L^−1), 10 μL of AChE (0.5 U·mL^−1) (Sigma, St. Louis, MO, USA) and 160 μL of 5,5-dithiobis-2-nitrobenzoic acid (DTNB, Ellman’s reagent) 0.33 mM (Sigma, St. Louis, MO, USA) in phosphate buffer (0.1 mo·L^−1, pH 8.0) were placed in triplicate in a microplate, and incubated at room temperature for 10 min after adding 10 μL of acetylthiocholine iodide (20 mmol·L^−1) (Sigma, St. Louis, MO, USA). The hydrolysis of acetylthiocholine iodide leads to production of acetic acid and thiocholine, which reacts with DTNB producing the anion 5-thio-2-nitrobenzoic acid, which was monitored at 412 nm during 20 min in microplate reader (BioTek Instruments, Inc., Winooski, VT, USA. Tetraethyl pyrophosphate (TEPP; Sigma, St. Louis, MO, USA) was used as a positive control. IAChE = [(Ac − As)/Ac] × 100, where Ac = absorbance for the control and As = absorbance for the sample was used to compute the percentage of inhibition (I) of AChE.

neuronal cell lines = details: previous study; neuronal cell integrity and mitochondrial metabolism; ref [28]; cited from earlier work
Description: The venom of solitary wasps is a rich source of neuroactive chemicals, including bradykinin-related peptides, which disrupt the synaptic transmission of the nAChR in the central nervous system of prey. Our group has studied the neuroprotective effects of natural peptides from solitary wasp venoms against the H2O2-induced oxidative stress in neuronal cell lines after different treatments for acute and chronic conditions.. This cell model, which promotes excessive ROS generation, with consequent neurotoxic effects, represents typical characte ...

mast cells [4] = assay: Histamine-releasing activity; type: cell-based
Protocol: (§2) Antimicrobial, hemolytic, and histamine-releasing activities were measured as described previously. The microbial species used in this study were: Escherichia coli (NBRC 14237), Staphylococcus aureus (NBRC 12732), and Saccharomyces cerevisiae (NBRC 10217), which were purchased from the Biological Resource Center (BRC, Kisarazu, Japan), National Institute of Technology and Evaluation. The pI of peptides was calculated with IPC (http://isoelectric.org/index.html, accessed on 8 November 2021). The physicochemical properties were examined using HeliQuest (http://heliquest.ipmc.cnrs.fr/, accessed on 8 November 2021).

[5] = tested on: Saccharomyces cerevisiae (NBRC 10217); assay: Antimicrobial activity (MIC), S. cerevisiae; type: cell-based
Protocol: as §2

Hemolytic activity = type: cell-based
Protocol: as §2

[6] = tested on: Staphylococcus aureus (NBRC 12732); assay: Antimicrobial activity (MIC), S. aureus; type: cell-based
Protocol: as §2

[7] = tested on: Escherichia coli (NBRC 14237); assay: Antimicrobial activity (MIC), E. coli; type: cell-based
Protocol: as §2

[8] = ref Shigeri et al. [34]; cited from earlier work
Description: Table 10 Antimicrobial, hemolytic, and histamine-releasing activities of annulatin and related peptides. | column: Hemolytic Activity (%) / at 10 μmol·L^−1

mast cells [9] = details: ref Shigeri et al. [34]; cited from earlier work
Description: Table 10 Antimicrobial, hemolytic, and histamine-releasing activities of annulatin and related peptides. | column: Histamine Releasing Activity at 10 μmol·L^−1 (%)

ACE I from rabbit lung = target: T2, ACE I from rabbit lung (Oryctolagus cuniculus, UniProt P12822); assay: ACE catalytic activity inhibition (FRET substrate); type: biochemical; details: peptide 20, 30 and 50 μmol·L−1; FRET substrate Abz-FRK(Dnp)P-OH 2, 4, 8 μmol·L−1; 100 mmol·L−1 Tris-HCl, 50 mmol·L−1 NaCl, 10 μmol·L−1 ZnCl2, pH 7.0; 37 °C; 15 min; triplicate
T2 construct: The ACE I from rabbit lung; purchased Sigma-Aldrich; host or cells: rabbit lung
T2 sequence (P12822 34-1310): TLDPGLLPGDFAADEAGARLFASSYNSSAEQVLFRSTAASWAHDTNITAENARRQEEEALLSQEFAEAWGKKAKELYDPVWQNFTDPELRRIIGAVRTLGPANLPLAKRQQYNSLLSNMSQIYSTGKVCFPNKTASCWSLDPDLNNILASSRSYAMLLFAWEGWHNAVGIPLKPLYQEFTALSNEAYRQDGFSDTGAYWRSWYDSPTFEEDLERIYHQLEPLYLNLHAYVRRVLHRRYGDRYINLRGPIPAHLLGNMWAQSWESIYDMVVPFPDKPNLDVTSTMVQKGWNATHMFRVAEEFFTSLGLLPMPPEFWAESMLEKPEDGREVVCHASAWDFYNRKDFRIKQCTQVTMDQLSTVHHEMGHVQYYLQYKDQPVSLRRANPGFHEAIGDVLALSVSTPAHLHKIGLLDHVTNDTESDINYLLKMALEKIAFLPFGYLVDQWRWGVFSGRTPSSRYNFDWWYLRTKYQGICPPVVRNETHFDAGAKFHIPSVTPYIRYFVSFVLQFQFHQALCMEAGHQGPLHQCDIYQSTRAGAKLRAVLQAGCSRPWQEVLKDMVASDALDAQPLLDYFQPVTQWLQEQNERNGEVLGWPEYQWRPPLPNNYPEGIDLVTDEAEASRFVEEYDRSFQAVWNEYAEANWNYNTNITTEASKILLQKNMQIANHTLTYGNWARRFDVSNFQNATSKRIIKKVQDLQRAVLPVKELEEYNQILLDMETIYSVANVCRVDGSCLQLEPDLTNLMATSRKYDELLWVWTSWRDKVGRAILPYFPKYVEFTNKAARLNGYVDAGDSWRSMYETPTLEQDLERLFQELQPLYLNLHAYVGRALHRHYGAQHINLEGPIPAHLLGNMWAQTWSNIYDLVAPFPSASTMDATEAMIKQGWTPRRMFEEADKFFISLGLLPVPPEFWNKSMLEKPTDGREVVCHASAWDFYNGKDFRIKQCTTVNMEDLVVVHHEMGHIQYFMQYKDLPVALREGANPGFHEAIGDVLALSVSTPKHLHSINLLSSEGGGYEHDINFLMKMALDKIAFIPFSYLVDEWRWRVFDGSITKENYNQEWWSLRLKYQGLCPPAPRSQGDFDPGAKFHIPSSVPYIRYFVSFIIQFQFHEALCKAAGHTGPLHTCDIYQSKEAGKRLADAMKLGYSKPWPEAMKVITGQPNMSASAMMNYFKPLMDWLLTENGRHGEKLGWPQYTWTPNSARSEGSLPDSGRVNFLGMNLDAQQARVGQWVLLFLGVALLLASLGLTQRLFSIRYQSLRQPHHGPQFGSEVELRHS
Protocol: (§3) Experiments were performed using different concentrations of α-campsomerin and β-campsomerin with ACE and NEP, and their FRET substrates, FRK(Dnp)P-OH and Abz-RGFK (Dnp)-OH, respectively. The assays used 7.5 ng of both peptidases and the substrates were added in a 100 mmol·L^−1 Tris-HCl buffer containing 50 mmol·L^−1 NaCl, 10 μmol·L^−1 ZnCl2, pH 7.0 (for ACE assays) and Tris HCl 50 mmol·L^−1, pH 7.5 buffer (for NEP assays). All experiments were carried out at 37 °C and at a final volume of 100 µL Three FRETs substrate concentrations were used (2 μmol·L^−1, 4 μmol·L^−1 and 8 μmol·L^−1), and were incubated with three concentrations of both peptides (20 μmol·L^−1, 30 μmol·L^−1 and 50 μmol·L^−1). Controls without the peptides were also performed in all assays. The reactions were monitored for 15 min on fluorimeter (Victor 3—Perkin–Elmer) and the results were analyzed on GraFit 3.0 from Erithacus Software. All assays were performed in triplicate.

human neprilysin (NEP) = human neprilysin (NEP) (Homo sapiens, UniProt P08473); assay: NEP catalytic activity inhibition (FRET substrate); type: biochemical; details: peptide 20, 30 and 50 μmol·L−1; FRET substrate Abz-RGFK(Dnp)-OH 2, 4, 8 μmol·L−1; Tris HCl 50 mmol·L−1 pH 7.5; 37 °C; 15 min; triplicate
Chain of human neprilysin (NEP) (P08473 whole entry): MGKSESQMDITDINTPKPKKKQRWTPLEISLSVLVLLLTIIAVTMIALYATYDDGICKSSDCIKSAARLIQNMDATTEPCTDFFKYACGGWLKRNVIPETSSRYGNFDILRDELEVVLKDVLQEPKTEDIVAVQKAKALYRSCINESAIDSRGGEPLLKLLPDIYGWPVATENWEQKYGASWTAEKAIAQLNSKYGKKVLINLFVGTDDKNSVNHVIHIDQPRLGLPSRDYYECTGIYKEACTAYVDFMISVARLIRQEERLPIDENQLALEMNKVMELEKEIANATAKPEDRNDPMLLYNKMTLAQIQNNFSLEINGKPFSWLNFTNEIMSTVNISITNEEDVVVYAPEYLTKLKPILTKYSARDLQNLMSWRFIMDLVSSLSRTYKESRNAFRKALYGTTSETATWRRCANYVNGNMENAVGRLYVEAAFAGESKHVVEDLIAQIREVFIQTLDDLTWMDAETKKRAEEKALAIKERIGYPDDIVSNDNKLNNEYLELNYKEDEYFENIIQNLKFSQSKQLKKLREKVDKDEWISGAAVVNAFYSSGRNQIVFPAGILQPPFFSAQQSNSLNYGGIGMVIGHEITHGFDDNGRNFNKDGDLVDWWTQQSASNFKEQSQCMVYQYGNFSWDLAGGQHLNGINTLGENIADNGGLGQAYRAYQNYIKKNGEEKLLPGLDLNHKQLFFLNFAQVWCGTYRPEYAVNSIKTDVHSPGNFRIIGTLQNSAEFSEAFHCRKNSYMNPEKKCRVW
Protocol: as §3

neprilysin (NEP) = assay: Stability test: cleavage of peptide by NEP; type: in vitro ADME; details: human, isolated human neprilysin (NEP); peptide 30 µmol·L−1 incubated four hours at 37 °C with NEP (7.5 n); RP-HPLC C-18, UV 214 nm
Protocol: (§4) Both peptides (30 µmol·L^−1) were incubated for four hours at 37 °C with ACE and NEP (7.5 n). As a negative control, samples containing only synthetic peptides were employed. After incubation, samples were analyzed on a Shim-pack VP-ODS C-18 column (4.6 150 mm) utilizing reverse-phase chromatography on HPLC (Prominence, Shimadzu). Solvent A was 0.1% TFA in water (solvent A), and solvent B was acetonitrile plus solvent A (9:1). Over a 20-min period, separations were carried out at a flow rate of 1 mL/min with a 10–60 percent gradient of solvent B. Elution was always followed by an assessment of UV absorption (214 nm).

ACE I = tested on: T3, ACE I; assay: Stability test: cleavage of peptide by ACE; type: in vitro ADME; details: rabbit, isolated ACE I from rabbit lung; peptide 30 µmol·L−1 incubated four hours at 37 °C with ACE (7.5 n); RP-HPLC C-18, UV 214 nm
T3 construct: The ACE I from rabbit lung; purchased Sigma-Aldrich; host or cells: rabbit lung
Protocol: as §4

[10] = DMSO 5% (v/v), after 6, 24 and 48 h, vs control group

## C[S+](C)[O-] [DMSO, reference compound]
PC12 cells [1]; [10]
  cell integrity in PC12 cells, DMSO positive control: decreased cell integrity
Vero cells; [10]
  cell integrity in Vero cells, DMSO positive control: decreased cell integrity

## OO [H2O2]
PC12 cells [2]; H2O2 0.5 mmol·L−1, 20 h of treatment
  reduction of PC12 cell integrity by H2O2: 60.5 ± 4.0%
PC12 cells [2]; tested 1–0.06 mmol·L−1, 20 h, dose-dependent
  H2O2 concentrations promoting PC12 cell death: greater than 0.3 mmol·L−1

## CCOP(=O)(OCC)OP(=O)(OCC)OCC [TEPP, tetraethyl pyrophosphate]
[3]
  AChE inhibition percentage: 76.20 ± 1.42%

## DYVTVKGFSPLRKA [β-scoliidine]
Neuronal cell lines
  neuroprotective effects against H2O2-induced neurotoxicity in prolonged therapy: showed neuroprotective effects

## ISEALKSIIVG-NH2 [Annulatin]
Mast cells [4]
  Histamine Releasing Activity at 10 μmol·L−1 (%): 33.0%
[5]
  MIC S. cerevisiae (NBRC 10217): Negative
Hemolytic activity
  Hemolytic Activity (%) at 12.5 μmol·L−1: 15.4%
[6]
  MIC S. aureus (NBRC 12732): Negative
[7]
  MIC E. coli (NBRC 14237): Negative

## Mastoparan
[8]
  Hemolytic Activity (%) at 10 μmol·L−1: 13.5 ^b %
Mast cells [9]
  Histamine Releasing Activity at 10 μmol·L−1 (%): 31.1 ^b %

## Melittin: honeybee hemolytic peptide
[8]
  Hemolytic Activity (%) at 10 μmol·L−1: 100.0 ^b %
Mast cells [9]
  Histamine Releasing Activity at 10 μmol·L−1 (%): 64.3 ^b %

## PRLRRLTGLSPLR [α-campsomerin]
ACE I from rabbit lung
  Inhibition (%) ACE: <0.01%
Human neprilysin (NEP)
  Inhibition (%) NEP: <0.01%
PC12 cells [1]; all concentrations tested (0.1, 1, 10 μmol·L−1), 6 h
  PC12 cell integrity after 6 h of treatment: reduced cell integrity
Neprilysin (NEP)
  metabolised at 4 h, 30 µmol·L−1: < 0.01%
ACE I
  metabolised at 4 h, 30 µmol·L−1: < 0.01%
Vero cells
  cytotoxicity in Vero cells: no significant cytotoxicity

## PRLRRLTGLSPLRAP [β-campsomerin]
ACE I from rabbit lung
  Inhibition (%) ACE: <0.01%
Human neprilysin (NEP)
  Inhibition (%) NEP: <0.01%
PC12 cells [1]; 0.1 to 10 µmol·L−1, up to 48 h
  toxicity in PC12 cells under the conditions tested (discussion): not toxic
Neprilysin (NEP)
  metabolised at 4 h, 30 µmol·L−1: < 0.01%
ACE I
  metabolised at 4 h, 30 µmol·L−1: < 0.01%
Vero cells
  cytotoxicity in Vero cells: no significant cytotoxicity
